For experiment [1], the system named is wounds of STZ-induced diabetic Nrf2+/+ mice. As to the kind of experiment: Wound closure in STZ-induced diabetic mouse model. The class given is in vivo. Conditions: for wound closure / diameter of granulation tissue between the flanking hair follicles: STZ mice; for wound closure: 12.5 mg/kg SF or 50 mg/kg CA i.p. every other day, up to 14 days after wound surgery, vs untreated STZ; for diameter of granulation tissue between the flanking hair follicles: day 14 post-surgery, histological examination. The text has this:
Diabetes mouse model and treatments. Nrf2^+/+ and Nrf2^-/- C57BL/6 mice were described previously (see, e.g., Jiang T, et al., Diabetes 59:850-860, 2010) and were housed and handled in accordance with the University of Arizona Institutional Animal Care policies. The STZ-induced diabetic model was previously described (see, e.g., Zheng H, et al., Diabetes 60:3055-3066, 2011) and only 8 week old male mice were included in this study. Briefly, three weeks after STZ injections, fasting glucose levels (FGL, 4 h fast) were measured using the AlphaTRAK system (Abbott Laboratory, North Chicago, Ill.) and mice with a FGL higher than or equal to 250 mg/dL were considered diabetic and included in the study (see, e.g., FIG. 2A and FIG. 3A for a detailed timeline). The mice (n=5-8) were then allocated randomly to each of the indicated treatment groups and received corn oil (control), 12.5 mg/kg SF or 50 mg/kg CA intraperitoneally every two days until skin tissues were harvested. One week after the treatments, the mice were anesthetized, their backs were shaved and cleaned. Two wounds were made with a sterile 6 mm skin biopsy punch (Health link, Jacksonville, Fla.) and covered with 3M Tegaderm pads. The wounds were photographed using an in vivo imaging system and an infrared integrated system ([…], Northampton, UK) for 14 days. Gross wound closure was quantified by ImageJ software, and wound healing was expressed as the percentage of the original wound area that had healed. The tissues were collected using an 8 mm skin biopsy punch; one half was fixed in 10% buffered formalin and embedded in paraffin while the other half was used for protein extraction. For the experiments in non-diabetic mice (FIG. 9), mice were injected with sodium citrate buffer and randomly allocated to the treatment groups (n=3-5). Wounds and tissue collection were performed as described above.

The subject of the next experiment is 8-oxo-dG. In words: Oxidative DNA damage (8-oxo-dG IHC) in wound skin tissues of STZ mice. Type of experiment: in vivo, mouse. From the text: Diabetes mouse model and treatments. Nrf2^+/+ and Nrf2^-/- C57BL/6 mice were described previously (see, e.g., Jiang T, et al., Diabetes 59:850-860, 2010) and were housed and handled in accordance with the University of Arizona Institutional Animal Care policies. The STZ-induced diabetic model was previously described (see, e.g., Zheng H, et al., Diabetes 60:3055-3066, 2011) and only 8 week old male mice were included in this study. Briefly, three weeks after STZ injections, fasting glucose levels (FGL, 4 h fast) were measured using the AlphaTRAK system (Abbott Laboratory, North Chicago, Ill.) and mice with a FGL higher than or equal to 250 mg/dL were considered diabetic and included in the study (see, e.g., FIG. 2A and FIG. 3A for a detailed timeline). The mice (n=5-8) were then allocated randomly to each of the indicated treatment groups and received corn oil (control), 12.5 mg/kg SF or 50 mg/kg CA intraperitoneally every two days until skin tissues were harvested. One week after the treatments, the mice were anesthetized, their backs were shaved and cleaned. […] Gross wound closure was quantified by ImageJ software, and wound healing was expressed as the percentage of the original wound area that had healed. […] Morphology was assessed by hematoxylin and eosin (H&E) staining (Vector laboratory, Burlingame, Calif.). […]

With `O=CC=Cc1ccccc1` [CA, Cinnamaldehyde], in experiment [1], the wound closure result was “accelerated wound closure” and the “diameter of granulation tissue between the flanking hair follicles” value is “markedly reduced”. The “oxidative DNA damage (8-oxo-dG)” value with 8-oxo-dG is “greatly alleviated the oxidative DNA damage”.
Consider `C[S@@+]([O-])CCCCN=C=S` [SF, L-sulforaphane], for which, in experiment [1], the wound closure entry is “accelerated wound closure” and the “diameter of granulation tissue between the flanking hair follicles” value is given as “markedly reduced”. The “wound closure compared with non-diabetic Con mice” value in experiment [1] (STZ+SF mice, during the first 7 days) was “even faster than that of the Con mice”. Also, the “oxidative DNA damage (8-oxo-dG)” value in the experiment on 8-oxo-dG was “greatly alleviated the oxidative DNA damage”.
